Test results from US11946092B2, “Method for producing 2-keto-3-deoxygluconate from 2-(acetylamino)-2-deoxy-d-gluconic acid by two enzymes” (SHANDONG UNIVERSITY, priority 2022, dated 2024).

Each molecule was assayed on deaminase OngC (assay: Substrate specificity analysis of OngC (ammonia production)). Details: 0.5 μM OngC, 10 mM substrate, 10 mM Bis-Tris-HCl (pH 7.5), 25° C., 30 min; FIG. 4B.
Type: biochemical, Pseudoalteromonas prydzensis ACAM 620
Experimental: Substrate specificity assays were performed with GlcN1A, D-glucosamine, D-galactosamine and D-mannosamine. GlcN1A was prepared by incubating 10 μM OngB with 10 mM GlcNAc1A in 10 mM Bis-Tris-HCl (pH 7.5) at 25° C. for 4 h. Standard reaction system contained 0.5 μM OngC, 10 mM substrate and 10 mM Bis-Tris-HCl (pH 7.5). Reactions were conducted at 25° C. for 30 min. The production of ammonia in the reaction mixture was determined with an AMMONIA (Rapid) ASSAY PROCEDURE. One unit of enzyme (U) is defined as the amount of enzyme required to release 1 μmol of ammonia per minute.

SMILES	OngC activity towards substrate (production of ammonia)
N[C@H]1C(O)O[C@H](CO)[C@@H](O)[C@@H]1O (stereo partly drawn) [D-glucosamine]	little or no activity
N[C@@H](C(=O)O)[C@@H](O)[C@H](O)[C@H](O)CO [GlcN1A, 2-(amino)-2-deoxy-D-gluconic acid]	high substrate specificity
N[C@H]1C(O)O[C@H](CO)[C@H](O)[C@@H]1O (stereo partly drawn) [D-galactosamine]	little or no activity
N[C@@H]1C(O)O[C@H](CO)[C@@H](O)[C@@H]1O (stereo partly drawn) [D-mannosamine]	little or no activity

These molecules were tested on deacetylase OngB (assay: Substrate specificity analysis of OngB (acetate production)). Details: 5 μM OngB, 25 mM substrate, 10 mM Bis-Tris-HCl (pH 7.5), 25° C., 30 min; FIG. 4A.
Type: biochemical, Pseudoalteromonas prydzensis ACAM 620
Experimental: Substrate specificity assays were performed with GlcNAc1A, GlcNAc, GlcNAc-6-P, N-acetyl-D-glutamate and N-acetyl-D-serine. Standard reaction system contained 5 μM OngB, 25 mM substrate and 10 mM Bis-Tris-HCl (pH 7.5). Reactions were conducted at 25° C. for 30 min. The production of acetate in the reaction mixture was determined with an Acetic Acid (ACS Analyser Format) Assay Kit. One unit of enzyme (U) is defined as the amount of enzyme required to release 1 μmol of acetate per minute.

SMILES	OngB activity towards substrate (production of acetate)
CC(=O)N[C@H](CCC(=O)O)C(=O)O [N-acetyl-D-glutamate]	little or no activity
CC(=O)N[C@H](CO)C(=O)O [N-acetyl-D-serine]	little or no activity
CC(=O)N[C@@H]1[C@@H](O)[C@H](O)[C@@H](COP(=O)(O)O)O[C@@H]1O [GlcNAc-6-P]	little or no activity
CC(=O)N[C@@H](C(=O)O)[C@@H](O)[C@H](O)[C@H](O)CO [GlcNAc1A, 2-(acetylamino)-2-deoxy-D-gluconic acid]	high substrate specificity
CC(=O)N[C@H]1C(O)O[C@H](CO)[C@@H](O)[C@@H]1O (stereo partly drawn) [GlcNAc, N-acetyl-D-glucosamine]	little or no activity
